Source: US8609675B2, “Fused Tricyclic Compounds as novel mTOR inhibitors” (Merck Sharp & Dohme Corp., priority 2009, dated 2013)

biological target: human mTOR enzyme (Homo sapiens, UniProt P42345); assay: mTOR Kinase Assay; assay type: biochemical; conditions: 5 μM ATP, 0.1 μM GST-S6K, rated A, B or C
Experimental: The mTOR assay buffer contained 10 mM hepes (pH 7.4), 50 mM NaCl, 100 μg/ml BSA, 50 mM β-glycerophosphate, 10 mM MnCl2 and 0.5 mM DTT. 20 ng of human mTOR enzyme was preincubated with the compound for 10 minutes. 5 μM ATP and 0.1 μM GST-S6K was added. The reaction was incubated for one hour at 30° C. Anti phospho p70-S6K (about 1.7 ng/well) and anti GST-XL665 (1:1 Ratio with the substrate GST-56K) were added after incubating. The plates were read at least 2 hours after adding the anti phospho p70-S6K and the anti GST-XL665.
IC50 DETERMINATIONS: Dose-response curves were plotted from the inhibition data generated, each in duplicate, from 8 point serial dilutions of inhibitory compounds. Concentration of compound was plotted against % kinase activity, calculated by CPM of treated samples divided by CPM of untreated samples. To generate IC50 values, the dose-response curves were then fitted to a standard sigmoidal curve and IC50 values were derived by nonlinear regression analysis.

IC50 | SMILES
1 to 10 nM | Cc1n[nH]c2c1c(C1CCS(=O)(=O)CC1)nc1c(-c3cnc4ccc(F)cc4c3)cnn12 [Compound 21]
1 to 10 nM | O=S1(=O)CCC(c2nc3c(-c4cnc5ccc(F)cc5c4)cnn3c3[nH]cc(Cl)c23)CC1 [Compound 31]
1 to 10 nM | O=S1(=O)CCC(c2nc3c(-c4ccc(-c5ccccc5)nc4)cnn3c3[nH]cc(Cl)c23)CC1 [Compound 32]
1 to 10 nM | CS(=O)(=O)N1CCC(c2nc3c(-c4ccc(-c5ccccc5)nc4)cnn3c3[nH]ccc23)C1 (stereo not shown) [Compound 27, 5-(1-(methylsulfonyl)pyrrolidin-3-yl)-3-(6-phenylpyridin-3-yl)-8H-pyrazolo[1,5-a]pyrrolo[3,2-e]pyrimidine]
1 to 10 nM | O=C([C@H](O)CO)N1CCC(c2nc3c(-c4ccc(-c5ccccc5)nc4)cnn3c3[nH]ccc23)CC1 [Compound 24, (R)-2,3-dihydroxy-1-(4-(3-(6-phenylpyridin-3-yl)-8H-pyrazolo[1,5-a]pyrrolo[3,2-e]pyrimidin-5-yl)piperidin-1-yl)propan-1-one]
1 to 10 nM | Cc1n[nH]c2c1c(C1CCS(=O)(=O)CC1)nc1c(-c3ccc(-c4cccnc4)nc3)cnn12 [Compound 19]
1 to 10 nM | Cc1n[nH]c2c1c(CNC1CCOCC1)nc1c(-c3cnc4ccccc4c3)cnn12 [Compound 26, N-((3-methyl-6-(quinolin-3-yl)-1H-dipyrazolo[1,5-a:4′,3′-e]pyrimidin-4-yl)methyl)tetrahydro-2H-pyran-4-amine]
1 to 10 nM | C[C@@H](O)C(=O)N1CCC(c2nc3c(-c4ccc(-c5ccccc5)nc4)cnn3c3[nH]cc(Cl)c23)CC1 [Compound 34, (R)-1-(4-(6-chloro-3-(6-phenylpyridin-3-yl)-8H-pyrazolo[1,5-a]pyrrolo[3,2-e]pyrimidin-5-yl)piperidin-1-yl)-2-hydroxypropan-1-one]
< 1 nM | Cc1n[nH]c2c1c(C1CCC(CC(=O)O)CC1)nc1c(-c3ccc(-c4ccccc4)nc3)cnn12 (stereo not shown) [Compound 22, 2-(4-(3-methyl-6-(6-phenylpyridin-3-yl)-1H-dipyrazolo[1,5-a:4′,3′-e]pyrimidin-4-yl)cyclohexyl)acetic acid]
< 1 nM | O=C(O)CC1CCC(c2nc3c(-c4ccc(-c5ccccc5)nc4)cnn3c3[nH]ccc23)CC1 (mixture of isomers) [Compound 29]
10 to 100 nM | C[C@@H](O)C(=O)N1CCC(Cc2nc3c(-c4ccc(-c5ccccc5)nc4)cnn3c3[nH]ccc23)CC1 [Compound 33, (R)-2-hydroxy-1-(4-((3-(6-phenylpyridin-3-yl)-8H-pyrazolo[1,5-a]pyrrolo[3,2-e]pyrimidin-5-yl)methyl)piperidin-1-yl)propan-1-one]
1 to 10 nM | Cc1n[nH]c2c1c(C1CCN(C(=O)[C@@H](C)O)CC1)nc1c(-c3ccc(-c4ccccc4)nc3)cnn12 [Compound 30, (R)-2-hydroxy-1-(4-(3-methyl-6-(6-phenylpyridin-3-yl)-1H-dipyrazolo[1,5-a:4′,3′-e]pyrimidin-4-yl)piperidin-1-yl)propan-1-one]
1 to 10 nM | Cc1n[nH]c2c1c(C1CCS(=O)(=O)CC1)nc1c(-c3cnc4ccccc4c3)cnn12 [Compound 18]
1 to 10 nM | CCc1n[nH]c2c1c(N1CCS(=O)(=O)CC1)nc1c(-c3cnc4ccccc4c3)cnn12 [Compound 17]
10 to 100 nM | C[C@@H](O)C(=O)N1CCC(Oc2nc3c(-c4ccc(-c5ccccc5)nc4)cnn3c3[nH]ccc23)CC1 [Compound 35, (R)-2-hydroxy-1-(4-(3-(6-phenylpyridin-3-yl)-8H-pyrazolo[1,5-a]pyrrolo[3,2-e]pyrimidin-5-yloxy)piperidin-1-yl)propan-1-one]
1 to 10 nM | O=C(O)[C@H]1CC[C@H](c2nc3c(-c4ccc(-c5ccccc5)nc4)cnn3c3[nH]ccc32)CC1 [Compound 23, (trans)-4-(3-(6-phenylpyridin-3-yl)-8H-pyrazolo[1,5-a]pyrrolo[3,2-e]pyrimidin-5-yl)cyclohexanecarboxylic acid]
1 to 10 nM | CC1(C(=O)O)CC=C(c2nc3c(-c4ccc(-c5ccccc5)nc4)cnn3c3[nH]ccc23)CC1 (stereo not shown) [Compound 28]
1 to 10 nM | Cc1n[nH]c2c1c(C1CCS(=O)(=O)CC1)nc1c(-c3ccc(-c4ccccc4)nc3)cnn12 [Compound 20]
1 to 10 nM | C[C@@H](O)C(=O)N1CCC(c2nc3c(-c4ccc(-c5ccccc5)nc4)cnn3c3[nH]ccc23)CC1 [Compound 25, (R)-2-hydroxy-1-(4-(3-(6-phenylpyridin-3-yl)-8H-pyrazolo[1,5-a]pyrrolo[3,2-e]pyrimidin-5-yl)piperidin-1-yl)propan-1-one]

More lines, now with the values behind:

SMILES | IC50
Cc1n[nH]c2c1c(CC1CCC(C)(C(=O)O)CC1)nc1c(-c3ccc(-c4cnn(C)c4)nc3)cnn12 (stereo not shown) [Compound 4] | 1 to 10 nM
O=S1(=O)CCC(c2nc3c(-c4cnc5ccc(F)cc5c4)cnn3c3[nH]ccc23)CC1 [Compound 12] | 1 to 10 nM
Cc1n[nH]c2c1c([C@H]1CC[C@H](C(=O)O)CC1)nc1c(-c3cnc4ccccc4c3)cnn12 [Compound 7] | 10 to 100 nM
Cc1n[nH]c2c1c(CC1CCC(C(=O)O)CC1)nc1c(-c3ccc(-c4ccccc4)nc3)cnn12 (stereo not shown) [Compound 5, 4-((3-methyl-6-(6-phenylpyridin-3-yl)-1H-dipyrazolo[1,5-a:4′,3′-e]pyrimidin-4-yl)methyl)cyclohexanecarboxylic acid] | 1 to 10 nM
Cc1n[nH]c2c1c(CC1CCC(C)(C(=O)O)CC1)nc1c(-c3ccc(-c4cccnc4)nc3)cnn12 (stereo not shown) [Compound 2] | 1 to 10 nM
O=S1(=O)CCC(c2nc3c(-c4ccc(-c5cccnc5)nc4)cnn3c3[nH]ncc23)CC1 [Compound 10] | 10 to 100 nM
Cc1n[nH]c2c1c(CC1CCC(C(=O)O)CC1)nc1c(-c3ccc(-c4cnn(C)c4)nc3)cnn12 (stereo not shown) [Compound 6, 4-((3-methyl-6-(6-(1-methyl-1H-pyrazol-4-yl)pyridin-3-yl)-1H-dipyrazolo[1,5-a:4′,3′-e]pyrimidin-4-yl)methyl)cyclohexanecarboxylic acid] | 1 to 10 nM
O=S1(=O)CCN(c2nc3c(-c4cnc5ccccc5c4)cnn3c3[nH]ccc23)CC1 [Compound 13] | 1 to 10 nM
Cc1n[nH]c2c1c([C@H]1CC[C@H](C(=O)O)CC1)nc1c(-c3ccc(-c4ccccc4)nc3)cnn12 [Compound 8, (1R,4R)-4-(3-methyl-6-(6-phenylpyridin-3-yl)-1H-dipyrazolo[1,5-a:4′,3′-e]pyrimidin-4-yl)cyclohexanecarboxylic acid] | < 1 nM
Cc1n[nH]c2c1c(C1CCS(=O)(=O)CC1)nc1c(-c3cnc4ccccc4c3)cnn12 [Compound 1, 3-(Quinolin-3-yl)-5-(1,1-dioxo-tetrahydro-2H-thiopyran-4-yl)-6-methyl-dipyrazolo[1,5-a:4′,3′-e]pyrimidine] | 10 to 100 nM
O=S1(=O)CCC(c2nc3c(-c4cnc5ccc(F)cc5c4)cnn3c3[nH]ncc23)CC1 [Compound 16] | 10 to 100 nM
O=S1(=O)CCC(c2nc3c(-c4ccc(-c5ccccc5)nc4)cnn3c3[nH]ncc23)CC1 [Compound 15] | 1 to 10 nM
Cc1n[nH]c2c1c(CC1CCC(C)(C(=O)O)CC1)nc1c(-c3ccc(-c4ccccc4)nc3)cnn12 (stereo not shown) [Compound 3, 1-methyl-4-((3-methyl-6-(6-phenylpyridin-3-yl)-1H-dipyrazolo[1,5-a:4′,3′-e]pyrimidin-4-yl)methyl)cyclohexanecarboxylic acid] | 1 to 10 nM
O=S1(=O)CCC(c2nc3c(-c4ccc(-c5ccccc5)nc4)cnn3c3[nH]ccc23)CC1 [Compound 9] | 1 to 10 nM
O=S1(=O)CCC(c2nc3c(-c4cnc5ccccc5c4)cnn3c3[nH]ccc23)CC1 [Compound 11] | 1 to 10 nM
